# According to US20130171098A1, “Cyclopropyl Fused Indolobenzazepine HCV NS5B Inhibitors” (priority 2006, published 2013):
# Where two headings read alike, the source gives them in different places.
# Experiments:
# [1] = molecular target: T1, HCV NS5B RdRp genotype 1b (Hepatitis C virus genotype 1b, UniProt Q9WMX2); assay: HCV NS5B RdRp enzyme assay (standard / modified); assay type: biochemical
# T1 construct: The protein was expressed with an 18 amino acid C-terminal truncation to enhance the solubility; made in house; host or cells: E. coli BL21(DE3), pET21a vector
# T1 sequence (Q9WMX2 2420-2992): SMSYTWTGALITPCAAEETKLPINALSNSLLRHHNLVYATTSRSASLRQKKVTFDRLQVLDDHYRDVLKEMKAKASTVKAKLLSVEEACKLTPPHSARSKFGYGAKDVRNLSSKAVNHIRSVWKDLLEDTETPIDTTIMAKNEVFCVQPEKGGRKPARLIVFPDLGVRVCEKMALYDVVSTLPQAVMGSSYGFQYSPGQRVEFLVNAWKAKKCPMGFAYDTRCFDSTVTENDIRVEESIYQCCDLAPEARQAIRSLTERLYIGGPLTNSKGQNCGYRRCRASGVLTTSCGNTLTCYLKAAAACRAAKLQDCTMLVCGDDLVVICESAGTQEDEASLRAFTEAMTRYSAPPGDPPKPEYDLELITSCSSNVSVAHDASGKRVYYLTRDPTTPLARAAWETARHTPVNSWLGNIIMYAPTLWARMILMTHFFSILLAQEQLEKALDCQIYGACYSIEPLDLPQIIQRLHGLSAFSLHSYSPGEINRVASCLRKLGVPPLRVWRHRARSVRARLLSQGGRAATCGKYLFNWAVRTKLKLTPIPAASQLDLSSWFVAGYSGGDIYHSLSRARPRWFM
# Description: HCV NS5B RdRp Cloning, Expression, and Purification.
# The cDNA encoding the NS5B protein of HCV, genotype 1b, was cloned into the pET21a expression vector. The protein was expressed with an 18 amino acid C-terminal truncation to enhance the solubility. The E. coli competent cell line BL21(DE3) was used for expression of the protein. Cultures were grown at 37° C. for ˜4 hours until the cultures reached an optical density of 2.0 at 600 nm. The cultures were cooled to 20° C. and induced with 1 mM IPTG. Fresh ampicillin was added to a final concentration of 50 μg/ml and the cells were grown overnight at 20° C.
# The lysis buffer consisted of 20 mM Tris-HCl, pH 7.4, 500 mM NaCl, 0.5% triton X-100, 1 mM DTT, 1 mM EDTA, 20% glycerol, 0.5 mg/ml lysozyme, 10 mM MgCl2, 15 ug/ml deoxyribonuclease I, and Complete TM protease inhibitor tablets (Roche). After addition of the lysis buffer, frozen cell pellets were resuspended using a tissue homogenizer. To reduce the viscosity of the sample, aliquots of the lysate were sonicated on ice using a microtip attached to a Branson sonicator. The sonicated lysate was centrifuged at 100,000×g for 1 hr at 4° C. and filtered through a 0.2 μm filter unit (Corning).
# The protein was purified using two sequential chromatography steps: Heparin sepharose CL-6B and polyU sepharose 4B (Pharmacia). The chromatography buffers were identical to the lysis buffer but contained no lysozyme, deoxyribonuclease I, MgCl2 or protease inhibitor and the NaCl concentration of the buffer was adjusted according to the requirements for charging the protein onto the column. Each column was eluted with a NaCl gradient which varied in length from 5-50 column volumes depending on the column type. […] The enzyme was aliquoted and stored at −80° C.
# Standard HCV NS5B RdRp Enzyme Assay.
# HCV RdRp genotype 1b assays were run in a final volume of 60 μl in 96 well plates (Corning 3600). The assay buffer is composed of 20 mM Hepes, pH 7.5, 2.5 mM KCl, 2.5 mM MgCl2, 1 mM DTT, 1.6 U RNAse inhibitor (Promega N2515), 0.01 mg/ml BSA (Sigma B6917), and 2% glycerol. All compounds were serially diluted (3-fold) in DMSO and diluted further in water such that the final concentration of DMSO in the assay was 2%. HCV RdRp genotype 1b enzyme was used at a final concentration of 28 nM. A polyA template was used at 6 nM, and a biotinylated oligo-dT12 primer was used at 180 nM final concentration. Template was obtained commercially (Amersham 27-4110). Biotinylated primer was prepared by Sigma Genosys. 3H-UTP was used at 0.6 μCi (0.29 μM total UTP). Reactions were initiated by the addition of enzyme, incubated at 30° C. for 60 min, and stopped by adding 25 μl of 50 mM EDTA containing SPA beads (4 μg/μl, Amersham RPNQ 0007). Plates were read on a Packard Top Count NXT after >1 hr incubation at room temperature.
# Modified HCV NS5B RdRp Enzyme Assay.
# A modified enzyme assay was performed essentially as described for the standard enzyme assay except for the following: The biotinylated oligo dT12 primer was precaptured on streptavidin-coated SPA beads by mixing primer and beads in assay buffer and incubating at room temperature for one hour. Unbound primer was removed after centrifugation. The primer-bound beads were resuspended in 20 mM Hepes buffer, pH 7.5 and used in the assay at final concentrations of 20 nM primer and 0.67 μg/μl beads. Order of addition in the assay: enzyme (1.75 nM) was added to diluted compound followed by the addition of a mixture of template (0.36 nM), 3H-UTP (0.6 μCi, 0.29 μM), and primer-bound beads, to initiate the reaction; concentrations given are final. Reactions were allowed to proceed for 4 hours at 30° C.
# IC50 values for compounds were determined using seven different [I].
# HCV replicon cells = assay: HCV replicon FRET / luciferase assay; assay type: cell-based, Hepatitis C virus
# Description: The HCV FRET screening assay was performed in 96-well cell culture plates. The FRET peptide (Anaspec, Inc.) (Taliani et al., Anal. Biochem. 1996, 240, 60-67) contains a fluorescence donor, EDANS, near one end of the peptide and an acceptor, DABCYL, near the other end. The fluorescence of the peptide is quenched by […] resonance energy transfer (RET) between the donor and the acceptor, but as the NS3 protease cleaves the peptide the products are released from RET quenching and the fluorescence of the donor becomes apparent. The assay reagent was made as follows: 5× cell Luciferase cell culture lysis reagent from Promega (#E153A) diluted to 1× with dH2O, NaCl added to 150 mM final, the FRET peptide diluted to 20 μM final from a 2 mM stock.
# To prepare plates, HCV replicon cells, with or without a Renilla luciferase reporter gene, were trypsinized and plated in a 96-well plate with titrated test compounds added in columns 3 through 12; columns 1 and 2 contained a control compound (HCV control inhibitor), and the bottom row contained cells with DMSO only. The plates were then placed in a CO2 incubator at 37° C.
# Subsequent to addition of the test compounds described above (FRET Assay Preparation), at various times the plate was removed and Alamar blue solution (Trek Diagnostics, #00-100) was added to measure cellular toxicity. After reading in a Cytoflour 4000 instrument (PE Biosystems), plates were rinsed with PBS and then used for FRET assay by the addition of 30 ul of the FRET peptide assay reagent described above (FRET Assay Preparation) per well. The plate was then placed into the Cytoflour 4000 instrument which had been set to 340 excite/490 emission, automatic mode for up to 20 cycles and the plate read in a kinetic mode. Typically, the signal to noise using an endpoint analysis after the reads was at least three-fold. Alternatively, after Alamar blue reading, plates were rinsed with PBS, then used for luciferase assay using the Promega Dual-Glo Luciferase Assay System or the Promega EnduRen Live Cell Substrate assay.
# Compound analysis was performed by quantification of the relative HCV replicon inhibition and the relative cytotoxicity values. To calculate cytoxicity values, the average Alamar Blue fluorescence signals from the control wells were set as 100% non-toxic. The individual signals in each of the compound test wells were then divided by the average control signal and multiplied by 100% to determine […]. To calculate the HCV replicon inhibition values, an average background value was obtained from the two wells containing the highest amount of HCV control inhibitor at the end of the assay period. These numbers were similar to those obtained from naïve Huh-7 cells. The background numbers were then subtracted from the average signal obtained from the control wells and this number was used as 100% activity. The individual signals in each of the compound test wells were then divided by the averaged control values after background subtraction and multiplied by 100% to determine percent activity. […] The two numbers generated for the compound plate, percent cytoxicity and percent activity, were used to determine compounds of interest for further analysis.
# [2] = HCV NS5B RdRp genotype 1b enzyme
# [3] = HCV replicon cells, FRET or luciferase activity
SMILES,IC50 [1] [nM],EC50 (HCV replicon cells; Hepatitis C virus) [nM],"IC50 [1, 2] [nM]",EC50 (HCV replicon cells; [3]) [nM],further results
COc1ccc2c(c1)C1CC1(C(=O)N1C3CCC1CN(Cc1ccccc1)C3)Cn1c-2c(C2CCCCC2)c2ccc(C(=O)NS(=O)(=O)N(C)C)cc21 (stereo not shown) [drawing 33],1 to 500,1 to 500,,,
COc1ccc2c(c1)C1CC1(C(=O)N1C3CCC1CNC3)Cn1c-2c(C2CCCCC2)c2ccc(C(=O)NS(=O)(=O)N(C)C)cc21 (stereo not shown) [drawing 34],1 to 500,1 to 500,,,
COc1ccc2c(c1)C1CC1(C(=O)N1C3CCC1CN(C(C)=O)C3)Cn1c-2c(C2CCCCC2)c2ccc(C(=O)NS(=O)(=O)N(C)C)cc21 (stereo not shown) [drawing 35],1 to 500,1 to 500,,,
CCN1CC2CCC(C1)N2C(=O)C12CC1c1cc(OC)ccc1-c1c(C3CCCCC3)c3ccc(C(=O)NS(=O)(=O)N(C)C)cc3n1C2 (stereo not shown) [drawing 36],1 to 500,1 to 500,,,
COc1ccc2c(c1)C1CC1(C(=O)N1C3CCC1CN(C(C)C)C3)Cn1c-2c(C2CCCCC2)c2ccc(C(=O)NS(=O)(=O)N(C)C)cc21 (stereo not shown) [drawing 37],1 to 500,1 to 500,,,
COc1ccc2c(c1)C1CC1(C(=O)N1C3CCC1CN(C)C3)Cn1c-2c(C2CCCCC2)c2ccc(C(=O)NS(N)(=O)=O)cc21 (stereo not shown) [drawing 38],1 to 500,1 to 500,,,
COc1ccc2c(c1)C1CC1(C(=O)NC1CC3CCC(C1)N3C)Cn1c-2c(C2CCCCC2)c2ccc(C(=O)NS(=O)(=O)N(C)C)cc21 (stereo not shown) [drawing 39],1 to 500,1 to 500,,,
COc1ccc2c(c1)C1CC1(C(=O)N1C3CCC1CN(CC1CC1)C3)Cn1c-2c(C2CCCCC2)c2ccc(C(=O)NS(=O)(=O)N(C)C)cc21 (stereo not shown) [drawing 40],1 to 500,1 to 500,,,
COc1ccc2c(c1)C1CC1(C(=O)N1C3CCC1CN(c1ccccn1)C3)Cn1c-2c(C2CCCCC2)c2ccc(C(=O)NS(=O)(=O)N(C)C)cc21 (stereo not shown) [drawing 41],1 to 500,1 to 500,,,
COc1ccc2c(c1)C1CC1(C(=O)N1C3CCC1CN(C)C3)Cn1c-2c(C2CCCCC2)c2ccc(C(=O)NS(=O)(=O)NC3CC3)cc21 (stereo not shown) [drawing 42],1 to 500,1 to 500,,,
CN1CC2CCC(C1)N2C(=O)C12CC1c1cc(OCc3ccccc3)ccc1-c1c(C3CCCCC3)c3ccc(C(=O)NS(=O)(=O)N(C)C)cc3n1C2 (stereo not shown) [drawing 43],1 to 500,1 to 500,,,
CN1CC2CCC(C1)N2C(=O)C12CC1c1cc(O)ccc1-c1c(C3CCCCC3)c3ccc(C(=O)NS(=O)(=O)N(C)C)cc3n1C2 (stereo not shown) [drawing 44],1 to 500,1 to 500,,,
COc1ccc2c(c1)C1CC1(C(=O)N1C3CCC1CN(C)C3)Cn1c-2c(C2CCCCC2)c2ccc(C(=O)NS(=O)(=O)N(C)C)cc21 (stereo not shown) [drawing 46],,,,,"IC50 ([1]; HCV NS5B RdRp genotype 1b enzyme, read-out: IC50): 1 to 500 nM; EC50 (HCV replicon cells; Hepatitis C virus, HCV replicon cells, FRET or luciferase activity, read-out: EC50): 1 to 500 nM"
CNS(=O)(=O)NC(=O)c1ccc2c(C3CCCCC3)c3n(c2c1)CC1(C(=O)N2C4CCC2CN(C)C4)CC1c1cc(OC)ccc1-3 (stereo not shown) [drawing 47],,,1 to 500,1 to 500,
CNS(=O)(=O)NC(=O)c1ccc2c(C3CCCCC3)c3n(c2c1)CC1(C(=O)N2C4CCC2CN(C)C4)CC1c1cc(OC)ccc1-3 (stereo not shown) [drawing 48],,,1 to 500,1 to 500,
CNS(=O)(=O)NC(=O)c1ccc2c(C3CCCCC3)c3n(c2c1)CC1(C(=O)N2C4CCC2CN(C)C4)CC1c1cc(OC)ccc1-3 (stereo not shown) [drawing 50],,,1 to 500,1 to 500,
COc1ccc2c(c1)C1CC1(C(=O)N1C3CCC1CN(C)C3)Cn1c-2c(C2CCCCC2)c2ccc(C(=O)NS(=O)(=O)N3CCC3)cc21 (stereo not shown) [drawing 51],,,1 to 500,1 to 500,
COc1ccc2c(c1)C1CC1(C(=O)N1C3CCC1CN(C)C3)Cn1c-2c(C2CCCCC2)c2ccc(C(=O)NS(=O)(=O)N3CCOCC3)cc21 (stereo not shown) [drawing 53],,,1 to 500,1 to 500,
COc1ccc2c(c1)C1CC1(C(=O)N1C3CCC1CN(C)C3)Cn1c-2c(C2CCCCC2)c2ccc(C(=O)NS(=O)(=O)N3CCN(C)CC3)cc21 (stereo not shown) [drawing 54],,,1 to 500,1 to 500,
CNS(=O)(=O)NC(=O)c1ccc2c(C3CCCCC3)c3n(c2c1)CC1(C(=O)N2[C@@H]4CC[C@H]2CN(C)C4)CC1c1cc(OC)ccc1-3 (stereo partly shown) [drawing 55],1 to 500,1 to 500,,,
CNS(=O)(=O)NC(=O)c1ccc2c(C3CCCCC3)c3n(c2c1)CC1(C(=O)N2[C@@H]4CC[C@H]2CN(C)C4)CC1c1cc(OC)ccc1-3 (stereo partly shown) [drawing 56],,,1 to 500,1 to 500,
COc1ccc2c(c1)C1CC1(C(=O)N1C3CCC1CN(Cc1ccccc1)C3)Cn1c-2c(C2CCCCC2)c2ccc(C(=O)NS(=O)(=O)N(C)C)cc21 (stereo not shown) [drawing 58],,,1 to 500,1 to 500,
COc1ccc2c(c1)C1CC1(C(=O)N1C3CCC1CNC3)Cn1c-2c(C2CCCCC2)c2ccc(C(=O)NS(=O)(=O)N(C)C)cc21 (stereo not shown) [drawing 59],,,1 to 500,1 to 500,
